According to patent US11357779B2 (G1 Therapeutics, Inc., priority 2018, dated 2022):
Where two headings read alike, the source gives them in different places.

Experiment: Plasma concentration versus time of Compound I and metabolite Compound III in patients dosed QD or BID with Form B of Compound II plus fulvestrant
Type: in vivo, human
Conditions: human, plasma, oral; for concentration at 22 day: Day 22; for concentration at 24 h: Day 1, […]
Text: Patients were enrolled into 1 of 2 parallel, independently operating, dose-escalation dosing cohorts with Form B of Compound II administered continuously either once daily (QD) or twice daily (BID) with food with fixed-dose fulvestrant (intramuscularly every 14 days for the first three injections and then every 28 days). Pre- or perimenopausal patients also received goserelin for the duration of study treatment. A […] agonist was started at least 28 days before the first dose of Form B, and those patients who were taking another LHRH agonist were switched to goserelin on Day 1. Patients were split into […] cohorts providing once a day (QD) dosing of 200 mg, 300 mg, 400 mg, 500 mg, or 650 mg of Form B, or twice a day (BID) dosing of 100 mg, 150 mg, or 200 mg of Form B. The second dose in BID cohorts was not administered in the evening until at least 12 hours after the initial morning dose of Form B. The dosing cohorts for Form B of Compound II are provided in Table 1.
Blood samples were collected at the following time points relative to the morning dose of Form B at Day 1 and at Day 29: pre-dose (0 hour) and 1, 2, 3, 4, 6, 8, 10, 12 (prior to the evening dose in the BID cohorts), and 24 (prior to the next day's morning dose) hours after dosing. A 5-minute time window was allowed for samples collected between the predose and 3 hours after Form B dosing. A 15-minute window was allowed for samples collected between 4 to 12 hours after Form B dosing. A 1-hour window was allowed for the sample collected 24 hours after Form B dosing. Blood samples for Compound I PK trough levels were collected pre-dose at Day 8, Day 15, and Day 22 prior to the morning administration of Compound I. Plasma concentrations of Compound I and its metabolite, Compound III, were measured using validated methods.
Analysis of plasma concentration versus time data for calculation of standard pharmacokinetic (PK) parameters following oral administration was conducted using Phoenix WinNonlin version 6.3 using actual blood sampling times.

## CC(C)N1CCN(c2ccc(Nc3ncc4cc5n(c4n3)C3(CCCCC3)CNC5=O)nc2)CC1 [Compound I, 2′-((5-(4-isopropylpiperazin-1-yl)pyridin-2-yl)amino)-7′,8′-dihydro-6′H-spiro[cyclohexane-1,9′-pyrazino[1′,2′:1,5]pyrrolo[2,3-d]pyrimidin]-6′-one]
150 mg, Cohort 7, 150 mg BID of Form B, Day 15, read-out: Trough Compound I Concentration, Min
  concentration at 15 day: 15.5 ng/mL
150 mg, Cohort 7, 150 mg BID of Form B, read-out: Trough Compound I Concentration, Max
  concentration at 22 day: 30.5 ng/mL
150 mg, Cohort 7, 150 mg BID of Form B, read-out: Trough Compound I Concentration, Median
  concentration at 22 day: 15.9 ng/mL
150 mg, Cohort 7, 150 mg BID of Form B, read-out: Trough Compound I Concentration, Min
  concentration at 22 day: 15.5 ng/mL
150 mg, Cohort 7, 150 mg BID of Form B, Day 29, 0.0 h, read-out: Compound I Concentration, Max
  concentration at 0 h: 51.1 ng/mL
150 mg, Cohort 7, 150 mg BID of Form B, Day 29, 0.0 h, read-out: Compound I Concentration, Median
  concentration at 0 h: 18.5 ng/mL
150 mg, Cohort 7, 150 mg BID of Form B, Day 29, 1.0 h, read-out: Compound I Concentration, Median
  concentration at 1 h: 28.7 ng/mL
150 mg, Cohort 7, 150 mg BID of Form B, Day 29, 2.0 h, read-out: Compound I Concentration, Median
  concentration at 2 h: 34.3 ng/mL
150 mg, Cohort 7, 150 mg BID of Form B, Day 29, 3.0 h, read-out: Compound I Concentration, Median
  concentration at 3 h: 35.6 ng/mL
150 mg, Cohort 7, 150 mg BID of Form B, Day 29, 4.0 h, read-out: Compound I Concentration, Median
  concentration at 4 h: 36.9 ng/mL
150 mg, Cohort 7, 150 mg BID of Form B, Day 29, 6.0 h, read-out: Compound I Concentration, Median
  concentration at 6 h: 26.5 ng/mL
150 mg, Cohort 7, 150 mg BID of Form B, Day 29, 8.0 h, read-out: Compound I Concentration, Median
  concentration at 8 h: 26.9 ng/mL
150 mg, Cohort 7, 150 mg BID of Form B, Day 29, 10.0 h, read-out: Compound I Concentration, Median
  concentration at 10 h: 23.8 ng/mL
150 mg, Cohort 7, 150 mg BID of Form B, Day 29, 12.0 h, read-out: Compound I Concentration, Median
  concentration at 12 h: 17.3 ng/mL
200 mg, 200 mg BID of Form B, Day 1, 0.0 h, Mean, read-out: Compound I Concentration
  concentration at 0 h: 0 ng/mL
200 mg, 200 mg BID of Form B, Day 1, 0.0 h, Median, read-out: Compound I Concentration
  concentration at 0 h: 0 ng/mL
200 mg, 200 mg BID of Form B, Day 1, 1.0 h, Mean, read-out: Compound I Concentration
  concentration at 1 h: 5.79 ng/mL
200 mg, 200 mg BID of Form B, Day 1, 1.0 h, Median, read-out: Compound I Concentration
  concentration at 1 h: 6.13 ng/mL
200 mg, 200 mg BID of Form B, Day 1, 2.0 h, Mean, read-out: Compound I Concentration
  concentration at 2 h: 9.42 ng/mL
200 mg, 200 mg BID of Form B, Day 1, 2.0 h, Median, read-out: Compound I Concentration
  concentration at 2 h: 11.8 ng/mL
200 mg, 200 mg BID of Form B, Day 1, 3.0 h, Mean, read-out: Compound I Concentration
  concentration at 3 h: 12.8 ng/mL
200 mg, 200 mg BID of Form B, Day 1, 3.0 h, Median, read-out: Compound I Concentration
  concentration at 3 h: 14.8 ng/mL
200 mg, 200 mg BID of Form B, Day 1, 4.0 h, Mean, read-out: Compound I Concentration
  concentration at 4 h: 15.5 ng/mL
200 mg, 200 mg BID of Form B, Day 1, 4.0 h, Median, read-out: Compound I Concentration
  concentration at 4 h: 14.9 ng/mL
200 mg, 200 mg BID of Form B, Day 1, 6.0 h, Mean, read-out: Compound I Concentration
  concentration at 6 h: 15.5 ng/mL
200 mg, 200 mg BID of Form B, Day 1, 6.0 h, Median, read-out: Compound I Concentration
  concentration at 6 h: 17.1 ng/mL
200 mg, 200 mg BID of Form B, Day 1, 8.0 h, Mean, read-out: Compound I Concentration
  concentration at 8 h: 8.94 ng/mL
200 mg, 200 mg BID of Form B, Day 1, 8.0 h, Median, read-out: Compound I Concentration
  concentration at 8 h: 9.13 ng/mL
200 mg, 200 mg BID of Form B, Day 1, 10.0 h, Mean, read-out: Compound I Concentration
  concentration at 10 h: 6.61 ng/mL
200 mg, 200 mg BID of Form B, Day 1, 10.0 h, Median, read-out: Compound I Concentration
  concentration at 10 h: 6.33 ng/mL
200 mg, 200 mg BID of Form B, Day 1, 12.0 h, Mean, read-out: Compound I Concentration
  concentration at 12 h: 5.64 ng/mL
200 mg, 200 mg BID of Form B, Day 1, 12.0 h, Median, read-out: Compound I Concentration
  concentration at 12 h: 4.89 ng/mL
200 mg, 200 mg QD of Form B, Day 1, 0.0 h, Mean, read-out: Compound I Concentration
  concentration at 0 h: 0 ng/mL
200 mg, 200 mg QD of Form B, Day 1, 0.0 h, Median, read-out: Compound I Concentration
  concentration at 0 h: 0 ng/mL
200 mg, 200 mg QD of Form B, Day 1, 1.0 h, Mean, read-out: Compound I Concentration
  concentration at 1 h: 8.42 ng/mL
200 mg, 200 mg QD of Form B, Day 1, 1.0 h, Median, read-out: Compound I Concentration
  concentration at 1 h: 3.65 ng/mL
200 mg, 200 mg QD of Form B, Day 1, 2.0 h, Mean, read-out: Compound I Concentration
  concentration at 2 h: 13.6 ng/mL
200 mg, 200 mg QD of Form B, Day 1, 2.0 h, Median, read-out: Compound I Concentration
  concentration at 2 h: 12.3 ng/mL
200 mg, 200 mg QD of Form B, Day 1, 3.0 h, Mean, read-out: Compound I Concentration
  concentration at 3 h: 20.2 ng/mL
200 mg, 200 mg QD of Form B, Day 1, 3.0 h, Median, read-out: Compound I Concentration
  concentration at 3 h: 18.1 ng/mL
200 mg, 200 mg QD of Form B, Day 1, 4.0 h, Mean, read-out: Compound I Concentration
  concentration at 4 h: 25 ng/mL
200 mg, 200 mg QD of Form B, Day 1, 4.0 h, Median, read-out: Compound I Concentration
  concentration at 4 h: 27 ng/mL
200 mg, 200 mg QD of Form B, Day 1, 6.0 h, Mean, read-out: Compound I Concentration
  concentration at 6 h: 16.8 ng/mL
200 mg, 200 mg QD of Form B, Day 1, 6.0 h, Median, read-out: Compound I Concentration
  concentration at 6 h: 17.7 ng/mL
200 mg, 200 mg QD of Form B, Day 1, 8.0 h, Mean, read-out: Compound I Concentration
  concentration at 8 h: 11.6 ng/mL
200 mg, 200 mg QD of Form B, Day 1, 8.0 h, Median, read-out: Compound I Concentration
  concentration at 8 h: 12.2 ng/mL
200 mg, 200 mg QD of Form B, Day 1, 10.0 h, Mean, read-out: Compound I Concentration
  concentration at 10 h: 8.28 ng/mL
200 mg, 200 mg QD of Form B, Day 1, 10.0 h, Median, read-out: Compound I Concentration
  concentration at 10 h: 9.13 ng/mL
200 mg, 200 mg QD of Form B, Day 1, 12.0 h, Mean, read-out: Compound I Concentration
  concentration at 12 h: 6.29 ng/mL
200 mg, 200 mg QD of Form B, Day 1, 12.0 h, Median, read-out: Compound I Concentration
  concentration at 12 h: 6.43 ng/mL
200 mg, 200 mg QD of Form B, Mean, read-out: Compound I Concentration
  concentration at 24 h: 3.61 ng/mL
200 mg, 200 mg QD of Form B, Median, read-out: Compound I Concentration
  concentration at 24 h: 3.24 ng/mL
200 mg, 200 mg QD of Form B, Day 29, 0.0 h, Mean, read-out: Compound I Concentration
  concentration at 0 h: 4.05 ng/mL
200 mg, 200 mg QD of Form B, Day 29, 0.0 h, Median, read-out: Compound I Concentration
  concentration at 0 h: 4.1 ng/mL
200 mg, 200 mg QD of Form B, Day 29, 1.0 h, Mean, read-out: Compound I Concentration
  concentration at 1 h: 5.12 ng/mL
200 mg, 200 mg QD of Form B, Day 29, 1.0 h, Median, read-out: Compound I Concentration
  concentration at 1 h: 5.35 ng/mL
200 mg, 200 mg QD of Form B, Day 29, 2.0 h, Mean, read-out: Compound I Concentration
  concentration at 2 h: 6.92 ng/mL
200 mg, 200 mg QD of Form B, Day 29, 2.0 h, Median, read-out: Compound I Concentration
  concentration at 2 h: 7.27 ng/mL
200 mg, 200 mg QD of Form B, Day 29, 3.0 h, Mean, read-out: Compound I Concentration
  concentration at 3 h: 12.5 ng/mL
